What was measured:
[1] = In vivo pharmacokinetics in mice; details: mouse, plasma, po, male ICR mice, intragastric 10 mg/kg; for AUC(0-t): read-out: Area under the oral curve AUC0-t; for Cmax: read-out: Oral maximum plasma concentration Cmax(ng/mL)
Procedure: To investigate the pharmacokinetic behaviors of the compounds according to the present disclosure in mice and evaluate the pharmacokinetic characteristics thereof, the plasma concentrations of the compounds according to the present disclosure in mice at different time points after intravenous injection and intragastric administration of the compounds were determined by LC/MS/MS.
Experimental Protocol: • Experimental animals: healthy adult male ICR mice (12 mice with body weight of 30-40 g, free water and diet for intravenous injection group, and fasted overnight for intragastric administration group, free water and diet after 4 hours of administration) were provided by Beijing Vital River Laboratory Animal Co. LTD; • Administration route and dosage: the ICR mice were administrated intravenously via the tail vein (2 mg/kg, 5% DMSO, pH 4.5 20% Captisol) and intragastrically (10 mg/kg, 5% DMSO, pH 4.5 20% Captisol).
Blood sample collection: prior to the administration, animals satisfying the experimental requirements were selected, weighed and marked. Before collecting blood samples, the mice were tied together, and the blood of each administrated mouse was collected at the respective scheduled time points (for the intravenous administration, the blood was collected at 0.083 h, 0.25 h, 0.5 h, 1 h, 2 h, 4 h, 6 h, 7.5 h, and 24 h after the administration, respectively, for a total of 9 time points; for the intragastric administration, the blood was collected at 0.083 h, 0.25 h, 0.5 h, 1 h, 2 h, 4 h, 6 h, 7.5 h, and 24 h after the administration, respectively, for a total of 9 time points), about 100 μL of blood was collected from orbit. The blood was transferred to a 1.5 mL tube, which was pre-filled with K2EDTA, centrifuged for 4 minutes (8000 rpm, 4° C.), and the plasma removed within 15 minutes, which all the steps were finished in 15 minutes after the collection of blood samples. All samples were stored in −20° C. refrigerator before sample analysis. The drug concentrations were determined using the LC/MS/MS method, the pharmacokinetic parameters of the compounds of some examples of the present disclosure in mice at the same dosage and administration routes were lists in Table 3: […]

[2] = tested on: MV4-11 acute myeloid leukemia xenografts; test: In vivo pharmacodynamic assay, MV4-11 subcutaneous xenograft; design: species or system BALB/c nude mice; details: Table 5, oral, once a day
Procedure: In vivo pharmacodynamic assays were performed on (CDX)BALB/c nude mice implanted subcutaneously with MV4-11 acute myeloid leukemia […] xenografts derived from human tumor cell lines.
Experimental protocol: BALB/c nude mice, female, 6-10 weeks old, with weight of approximately 20-23 grams, were maintained in a specific pathogen-free environment, 5 mice in each cage, and 2 cages with 10 mice as one group. All the cages, bedding and water were disinfected before use. All animals had free access to a standard certified commercial laboratory diet. […] Each mouse was implanted subcutaneously with tumor cells (1×10^7 0.1 ml+Matrigel 0.1 ml) in the right flank for tumor growth. When the mean tumor volume reached approximately 165 mm^3, the tumors were randomly grouped according to body weight and tumor volume, and the administration of the compounds began. Test compounds were administered via oral gavage daily. Antitumor efficacy was determined by dividing the mean tumor volume increase of the animals treated with the compound by the mean tumor volume increase of untreated animals.
Tumor volumes were measured twice a week with two-dimensional calipers, and volumes were measured in cubic millimeters. Tumor volume TV=0.5a×b^2, where a represent a long diameter of the tumor and b represents a short diameter of the tumor.
Relative tumor proliferation rate T/C (%), i.e., a percentage value of relative tumor volume of treatment group to relative tumor volume of control group at a certain time point, can be calculated based on an equation of T/C %=TRTV/CRTV×100 (TRTV: mean RTV in treatment group; CRTV: mean RTV in solvent control group; RTV=Vt/V0, V0 being the tumor volume of the animal at the time of grouping, Vt being the tumor volume of the animal after treatment).
Body weight change (%) of tumor-bearing animals was calculated as follows:
(weight at measurement−weight at grouping)/weight at grouping×100.

[3] = molecular target: CDK9/CycT (Homo sapiens (Human), UniProt P50750); test: LANCE Ultra kinase activity inhibition assay, CDK9/CycT; type: biochemical; details: ATP 10 μM, highest compound concentration 1 μM
CDK9/CycT, sequence (P50750 whole entry): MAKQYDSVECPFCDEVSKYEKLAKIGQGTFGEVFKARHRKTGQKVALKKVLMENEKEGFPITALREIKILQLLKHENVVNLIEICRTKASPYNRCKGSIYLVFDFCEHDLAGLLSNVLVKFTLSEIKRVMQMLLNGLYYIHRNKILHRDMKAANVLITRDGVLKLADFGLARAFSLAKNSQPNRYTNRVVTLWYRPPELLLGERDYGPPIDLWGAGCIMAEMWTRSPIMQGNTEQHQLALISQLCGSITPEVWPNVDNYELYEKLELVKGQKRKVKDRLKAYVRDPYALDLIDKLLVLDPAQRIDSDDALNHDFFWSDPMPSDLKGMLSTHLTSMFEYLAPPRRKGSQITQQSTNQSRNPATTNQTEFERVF
CDK9/CycT, sequence (O60563 whole entry partner): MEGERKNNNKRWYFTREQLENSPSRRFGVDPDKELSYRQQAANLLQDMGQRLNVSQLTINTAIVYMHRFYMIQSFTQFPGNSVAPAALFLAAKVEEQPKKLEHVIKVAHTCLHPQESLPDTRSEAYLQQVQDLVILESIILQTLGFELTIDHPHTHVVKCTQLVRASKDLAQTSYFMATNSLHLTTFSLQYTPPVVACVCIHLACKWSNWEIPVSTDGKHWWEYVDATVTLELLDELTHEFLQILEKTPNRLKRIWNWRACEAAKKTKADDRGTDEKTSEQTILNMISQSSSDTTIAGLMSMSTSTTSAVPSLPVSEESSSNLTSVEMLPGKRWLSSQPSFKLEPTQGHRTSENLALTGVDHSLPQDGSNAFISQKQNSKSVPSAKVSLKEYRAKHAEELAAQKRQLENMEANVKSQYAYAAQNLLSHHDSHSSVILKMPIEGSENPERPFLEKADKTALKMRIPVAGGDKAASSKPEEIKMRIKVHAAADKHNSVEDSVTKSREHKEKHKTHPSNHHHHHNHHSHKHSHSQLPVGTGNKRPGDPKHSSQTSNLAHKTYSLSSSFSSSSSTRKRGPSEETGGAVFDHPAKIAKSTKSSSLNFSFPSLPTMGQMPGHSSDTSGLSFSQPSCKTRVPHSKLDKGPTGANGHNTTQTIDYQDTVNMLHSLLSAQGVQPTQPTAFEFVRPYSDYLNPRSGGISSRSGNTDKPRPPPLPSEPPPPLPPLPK
Procedure: (§1) In the following LANCE Ultra test methods, kinase reagents were purchased from Carna Bioscience, reaction substrates and detection reagents were purchased from PerkinElmer, and the remaining reagents were purchased from Thermo scientific.
The inhibiting effects on the kinase activity of CDK1/CycB (Carna bioscience, #04-102), CDK2/CycA (Carna bioscience, #04-103) and CDK9/CycT (Carna bioscience, #04-110) were determined by using LANCE Ultra method.
The kinase activity test was performed using a system (10 μL) containing the following components: substrate diluent prepared by mixing CDK kinase diluent, Ulight-Myelic basic protein (Perkin Elmer, #TRF-0109, hereinafter referred to as U-MBP) and ATP (Thermo scientific, #PV3227); and the compounds (i.e., analyte) prepared in the examples of the present disclosure. The assay for each kinase includes three test groups, i.e., a background group (Blank), a non-inhibition group (PC), and compound testing group (Test). The components included in each test group were as follows:
(§2) Working concentrations of the respective components of the Test groups in different kinase reactions were as follows.
(§3) Compounds: 10 mM of the compound to be tested was dissolved at room temperature and diluted with DMSO to gradient concentrations, followed by diluting with deionized water to prepare a 4× working solution of the compound, and the content of DMSO was 2%. The highest concentration of compound used in the CDK1 and CDK2 assays was 10 μM, and that in CDK9 assay was 1 μM.
1.33×reaction buffer: the components include 26.7 mM of MOPS, 6.67 mM of MgCl2, and 0.0133% Tween-20, which were stored in a 4° C. refrigerator and protected from light after preparation. Freshly prepared DTT was added to a final concentration of 5.33 mM before use.
(§4) The working concentration of DMSO in the reaction was 0.5%.
(§5) The above-mentioned components, after being mixed, were placed on a shaker and incubated at room temperature in the dark for 1 h. 10 μL of test solution was then added to all test groups (including Blank, PC and Test groups).
10 μL of test solution contains the following components: 16 mM of EDTA (Thermo scientific, #15575), 1 nM of phosphorylated U-MBP protein antibody (Perkin Elmer, #TRF-0201), and 1× detection damping fluid (Perkin Elmer, #CR97-100).
After the test solution was added, the solution was placed on a shaker and continually incubated at room temperature for 1 h in the dark. At the end of incubation, Victor X5 fluorescence microplate reader of Perkin Elmer was used to read the signal; the wavelength of excitation light was 320 nm, and the wavelengths of emission light were 615 nm and 665 nm. The inhibition rate was calculated as below.
1. For all groups, a value of 665 nm/615 nm (hereinafter referred to as Ratio) was calculated, and an inhibition rate was calculated based on the Ratio of each group;
(§6) 2. Inhibition rate=(PCRatio-TestRatio)/(PCRatio-BlankRatio)*100%; and
(§7) 3. XLFIT 5.0 software (IDBS, UK) was used to fit a graph by using the logarithmic value of the compound concentration as the X-axis and the inhibition rater as the Y-axis, and a four-parameter model was used to calculate the half inhibitory concentration IC50 of the compound.

[4] = molecular target: CDK2/CycA (Homo sapiens (Human), UniProt P24941); test: LANCE Ultra kinase activity inhibition assay, CDK2/CycA; type: biochemical; details: ATP 10 μM, highest compound concentration 10 μM
Description: as §1
(§8) The assay for each kinase includes three test groups, i.e., a background group (Blank), a non-inhibition group (PC), and compound testing group (Test). The components included in each test group were as follows:
as §2, §3, §4, §5
(§9) After the test solution was added, the solution was placed on a shaker and continually incubated at room temperature for 1 h in the dark. […] The inhibition rate was calculated as below.
as §6, §7

[5] = molecular target: CDK1/CycB (Homo sapiens (Human), UniProt P06493); test: LANCE Ultra kinase activity inhibition assay, CDK1/CycB; type: biochemical; details: ATP 4 μM, highest compound concentration 10 μM
CDK1/CycB, sequence (P06493 whole entry): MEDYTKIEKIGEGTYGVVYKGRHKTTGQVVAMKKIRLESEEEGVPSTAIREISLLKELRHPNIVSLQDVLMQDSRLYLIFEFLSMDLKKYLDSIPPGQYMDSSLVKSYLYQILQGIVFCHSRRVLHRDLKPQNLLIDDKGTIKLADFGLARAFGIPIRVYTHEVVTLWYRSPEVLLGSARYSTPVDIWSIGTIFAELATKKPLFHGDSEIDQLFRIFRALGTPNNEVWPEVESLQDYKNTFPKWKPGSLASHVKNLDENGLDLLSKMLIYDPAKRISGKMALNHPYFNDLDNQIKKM
CDK1/CycB, sequence (P14635 whole entry partner): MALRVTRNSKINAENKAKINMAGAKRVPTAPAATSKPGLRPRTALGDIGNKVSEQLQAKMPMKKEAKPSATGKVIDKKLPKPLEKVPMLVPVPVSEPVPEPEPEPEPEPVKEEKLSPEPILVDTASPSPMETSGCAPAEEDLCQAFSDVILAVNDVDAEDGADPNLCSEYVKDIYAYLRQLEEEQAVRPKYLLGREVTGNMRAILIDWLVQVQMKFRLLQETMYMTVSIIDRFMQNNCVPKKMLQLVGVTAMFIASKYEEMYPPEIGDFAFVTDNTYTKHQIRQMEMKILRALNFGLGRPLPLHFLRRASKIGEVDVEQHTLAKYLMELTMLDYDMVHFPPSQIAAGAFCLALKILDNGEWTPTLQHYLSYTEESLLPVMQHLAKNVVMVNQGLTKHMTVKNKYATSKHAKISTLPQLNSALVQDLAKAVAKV
Description: as §1, §8, §2, §3, §4, §5, §9, §6, §7

CCC(CC)c1cc(N[C@H]2CC[C@H](N)C2)n2nccc2n1 [Compound D, reference compound]
AUC(0-t) [1]: 1190 ng·h/mL | Cmax [1]: 433 ng/mL | Average tumor weight ([2]; 12.5 mpk): 0.43 g | T/C(%) ([2]; 12.5 mpk): 35.91% | Average tumor weight ([2]; 25 mpk): 0.04 g | T/C(%) ([2]; 25 mpk): 2.90%

C[C@H](c1cc(N[C@H]2CC[C@H](N)C2)n2nccc2n1)C1CC1 [Compound Z-5-2]
AUC(0-t) [1]: 1700 ng·h/mL | Cmax [1]: 690 ng/mL | IC50 [3]: 0.007 µM | Average tumor weight ([2]; 5 mpk): 0.72 g | T/C(%) ([2]; 5 mpk): 59.25% | Average tumor weight ([2]; 10 mpk): 0.04 g | T/C(%) ([2]; 10 mpk): 3.45%

Cc1cnn2c(N[C@H]3CC[C@H](N)C3)cc(C(C3CC3)C3CC3)nc12 [Compound Z-9]
IC50 [4]: 1.55 µM | AUC(0-t) [1]: 7860 ng·h/mL | Cmax [1]: 740 ng/mL | IC50 [3]: 0.008 µM | IC50 [5]: 1.04 µM

C[C@H](c1cc(N[C@H]2CC[C@H](N)C2)n2nccc2n1)C1CCC1 [Compound Z-11-P1]
AUC(0-t) [1]: 2960 ng·h/mL | Cmax [1]: 379 ng/mL

Cc1cnn2c(N[C@H]3CC[C@H](N)C3)cc([C@@H](C)C3CC3)nc12 [Compound Z-32-P2]
IC50 [4]: 6.82 µM | AUC(0-t) [1]: 9410 ng·h/mL | Cmax [1]: 696 ng/mL | IC50 [3]: 0.056 µM | IC50 [5]: 8.22 µM

C=CC(C)(C)c1cc(N[C@H]2CC[C@H](N)C2)n2ncc(Cl)c2n1 [Compound Z-56]
IC50 [4]: 3.78 µM | AUC(0-t) [1]: 6090 ng·h/mL | Cmax [1]: 409 ng/mL | IC50 [3]: 0.013 µM | IC50 [5]: 2.48 µM

C[C@H](c1cc(N[C@H]2C[C@H](N)C2)n2nccc2n1)C1CC1 [Compound Z-62-P1]
IC50 [4]: 1.97 µM | AUC(0-t) [1]: 2060 ng·h/mL | Cmax [1]: 786 ng/mL | IC50 [3]: 0.01 µM | IC50 [5]: 1.71 µM

Source: patent US20240109898A1, “SUBSTITUTED PYRAZOLO[1,5-A]PYRIMIDINE-7-AMINE DERIVATIVES, COMPOSITIONS AND PHARMACEUTICAL USES THEREOF” (SHANGHAI HAIYAN PHARMACEUTICAL TECHNOLOGY CO., LTD., priority 2021, published 2024)
